{"source": "paper PMC4151019", "about": "(Clinical Pharmacology and Therapeutics, 2014)", "key": {"[1]": {"test": "Side effects reported by volunteers", "settings": "10 healthy volunteers"}, "CYP3A": {"system": "CYP3A", "test": "CYP3A phenotyping with midazolam", "settings": "voriconazole 400 mg 2 h before cocktail"}, "CYP2B6": {"system": "CYP2B6", "test": "CYP2B6 phenotyping with bupropion", "settings": "rifampicin-mediated induction; matrix not stated"}, "[2]": {"format": "in vivo, human"}, "CYP2D6": {"system": "CYP2D6", "settings": "read-out: inhibition constant (Ki); cited from earlier work"}, "[3]": {"test": "Comparison of probe Cmax and AUC in DBS and plasma", "format": "in vivo, human", "settings": "for blood plasma ratio: human, capillary whole blood (DBS) versus venous plasma, oral"}, "[4]": {"settings": "after a single 75-mg bupropion dose; cited from earlier work"}, "CYP1A2": {"target": "T1, CYP1A2 (Homo sapiens, UniProt P05177)", "T1 sequence (P05177 1-516)": "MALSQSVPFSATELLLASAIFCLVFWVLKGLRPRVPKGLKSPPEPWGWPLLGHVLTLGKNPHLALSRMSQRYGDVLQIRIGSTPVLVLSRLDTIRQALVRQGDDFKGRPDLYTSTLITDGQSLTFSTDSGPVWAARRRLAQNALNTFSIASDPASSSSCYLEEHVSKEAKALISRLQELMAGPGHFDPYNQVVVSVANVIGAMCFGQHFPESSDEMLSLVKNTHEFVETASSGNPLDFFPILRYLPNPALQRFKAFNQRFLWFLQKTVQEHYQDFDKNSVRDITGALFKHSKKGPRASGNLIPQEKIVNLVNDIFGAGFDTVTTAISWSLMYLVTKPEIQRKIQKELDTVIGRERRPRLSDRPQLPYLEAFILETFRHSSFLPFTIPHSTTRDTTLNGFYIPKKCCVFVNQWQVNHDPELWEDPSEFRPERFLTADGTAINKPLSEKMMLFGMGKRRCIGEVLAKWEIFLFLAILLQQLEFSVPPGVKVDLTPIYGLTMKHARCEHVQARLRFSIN", "test": "CYP1A2 phenotyping with caffeine", "settings": "par/caf AUClast ratio in DBS"}, "CYP2C19": {"target": "CYP2C19 (Homo sapiens, UniProt P33261)", "sequence (P33261 whole entry)": "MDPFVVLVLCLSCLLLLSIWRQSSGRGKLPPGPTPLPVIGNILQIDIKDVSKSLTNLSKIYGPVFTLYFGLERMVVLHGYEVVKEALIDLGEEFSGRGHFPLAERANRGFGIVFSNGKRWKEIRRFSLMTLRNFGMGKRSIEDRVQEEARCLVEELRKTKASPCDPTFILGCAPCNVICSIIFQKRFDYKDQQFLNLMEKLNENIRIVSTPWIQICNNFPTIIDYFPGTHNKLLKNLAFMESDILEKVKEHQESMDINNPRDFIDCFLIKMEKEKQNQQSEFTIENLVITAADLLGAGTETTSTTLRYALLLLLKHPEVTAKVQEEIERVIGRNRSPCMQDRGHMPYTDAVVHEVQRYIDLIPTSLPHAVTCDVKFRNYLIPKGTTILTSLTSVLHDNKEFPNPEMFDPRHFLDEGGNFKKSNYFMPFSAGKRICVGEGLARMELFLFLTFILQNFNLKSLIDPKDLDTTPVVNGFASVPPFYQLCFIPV", "settings": "previous studies; cited from earlier work"}, "[5]": {"settings": "after a 75-mg single dose, from free plasma fraction and liver/plasma ratio"}, "[6]": {"settings": "after a single 25-mg dose, approximately 3 times less than 75 mg"}}, "note": "Several values for one entry are separate records, joined by “and”; a condition that tells them apart may be missing. Equal values may be shown once. Read-outs that look alike come from different tables or passages of the source."}
{"smiles": "C[C@@H](c1ncncc1F)[C@](O)(Cn1cncn1)c1ccc(F)cc1F", "note": "[voriconazole]", "values": [{"measurement": "reported side effects", "setting": "[1]", "value": "four volunteers reported short-lasting troubled vision"}, {"measurement": "effect on CYP3A activity", "setting": "CYP3A", "value": "significantly inhibited"}]}
{"smiles": "CC(NC(C)(C)C)C(=O)c1cccc(Cl)c1", "note": "(centres unmarked) [Bupropion, bupropion]", "values": [{"measurement": "decrease in bupropion AUC", "setting": "CYP2B6", "value": "approximately threefold"}, {"measurement": "maximal estimated liver concentrations", "setting": "[2]; [5]", "value": 0.73, "unit": "µmol/L"}, {"measurement": "maximal estimated liver concentrations", "setting": "[2]; [6]", "value": 0.24, "unit": "µmol/L"}, {"measurement": "Ki", "setting": "CYP2D6", "value": 21, "unit": "µM"}]}
{"smiles": "Cc1ncc2n1-c1ccc(Cl)cc1C(c1ccccc1F)=NC2", "note": "[Midazolam, midazolam]", "values": [{"measurement": "blood plasma ratio", "setting": "[3]", "value": "~0.6"}]}
{"smiles": "COc1ccc2c(c1)[C@]13CCCC[C@@H]1[C@H](C2)N(C)CC3", "note": "[Dextromethorphan, dextromethorphan]", "values": [{"measurement": "Cmax and AUC in DBS vs plasma (mean ratio, blood to plasma ratio)", "setting": "[3]; capillary DBS vs venous plasma", "value": "higher in DBS"}]}
{"smiles": "C[C@H](NC(C)(C)C)[C@@H](O)c1cccc(Cl)c1", "note": "[threohydrobupropion]", "values": [{"measurement": "maximal estimated liver concentrations", "setting": "[2]; [5]", "value": 1.31, "unit": "µmol/L"}, {"measurement": "maximal estimated liver concentrations", "setting": "[2]; [6]", "value": 0.44, "unit": "µmol/L"}, {"measurement": "Ki", "setting": "CYP2D6", "value": 5.4, "unit": "µM"}, {"measurement": "maximal plasma concentrations", "setting": "[4]", "value": 0.24, "unit": "µmol/L"}]}
{"smiles": "CC(C(=O)O)c1ccc(-c2ccccc2)c(F)c1", "note": "(centres unmarked) [Flurbiprofen, flurbiprofen]", "values": [{"measurement": "blood plasma ratio", "setting": "[3]", "value": "~0.6"}]}
{"smiles": "COCCCC/C(=N\\OCCN)c1ccc(C(F)(F)F)cc1", "note": "[fluvoxamine]", "values": [{"measurement": "reported side effects", "setting": "[1]", "value": "four volunteers reported short-lasting troubled vision"}, {"measurement": "effect on CYP1A2 activity", "setting": "CYP1A2", "value": "potently inhibited"}]}
{"smiles": "CC(NC(C)(C)CO)C(=O)c1cccc(Cl)c1", "note": "(centres unmarked) [OH-bup, 4′-hydroxybupropion]", "values": [{"measurement": "maximal estimated liver concentrations", "setting": "[2]; [5]", "value": 1.13, "unit": "µmol/L"}, {"measurement": "maximal estimated liver concentrations", "setting": "[2]; [6]", "value": 0.38, "unit": "µmol/L"}, {"measurement": "Ki", "setting": "CYP2D6", "value": 13.3, "unit": "µM"}, {"measurement": "maximal plasma concentrations", "setting": "[4]", "value": 0.52, "unit": "µmol/L"}]}
{"smiles": "CC(NC(C)(C)C)C(O)c1cccc(Cl)c1", "note": "(centres unmarked) [erythrohydrobupropion]", "values": [{"measurement": "maximal estimated liver concentrations", "setting": "[2]; [5]", "value": 0.16, "unit": "µmol/L"}, {"measurement": "maximal estimated liver concentrations", "setting": "[2]; [6]", "value": 0.05, "unit": "µmol/L"}, {"measurement": "Ki", "setting": "CYP2D6", "value": 1.7, "unit": "µM"}, {"measurement": "maximal plasma concentrations", "setting": "[4]", "value": 0.03, "unit": "µmol/L"}]}
{"smiles": "CO[C@H]1/C=C/O[C@@]2(C)Oc3c(C)c(O)c4c(O)c(c(/C=N/N5CCN(C)CC5)c(O)c4c3C2=O)NC(=O)/C(C)=C\\C=C\\[C@H](C)[C@H](O)[C@@H](C)[C@@H](O)[C@@H](C)[C@H](OC(C)=O)[C@@H]1C", "note": "[rifampicin]", "values": [{"measurement": "extent of CYP2C19 induction", "setting": "CYP2C19", "value": "4.2 fold and 2.6 fold"}, {"measurement": "effect on CYP1A2 activity", "setting": "CYP1A2", "value": "slightly, but not significantly, increased"}]}
{"smiles": "COc1ccc2[nH]c([S+]([O-])Cc3ncc(C)c(OC)c3C)nc2c1", "note": "(centres unmarked) [Omeprazole, omeprazole]", "values": [{"measurement": "blood plasma ratio", "setting": "[3]", "value": "~0.6"}]}
